# Results reported in publication PMC7125515 (Bioorganic & Medicinal Chemistry, 2011).
# “Also recorded” adds a separate entry of the source.
# Key:
# [1] = molecular target: hypoxanthine-guanine-xanthine phosphoribosyltransferase (HGXPRT); details: read-out: Ki, HGXPRT; Plasmodium falciparum enzyme; cited from earlier work
# [2] = tested on: herpes- and poxviruses; experiment: organism not typed; assay type: cell-based; details: for Activity against herpes- and poxviruses (in words): DNA viruses: VACV, HSV-1, HSV-2, TK- HSV-1, VZV; for Activity against herpes- and poxviruses (in words) / Selectivity index (ratio CC50:EC50), HCMV: HCMV; for Selectivity index (ratio CC50:EC50), HCMV / Selectivity index (ratio CC50:EC50), HSV / Selectivity index (ratio CC50:EC50), VZV: CC50 in HEL; for Selectivity index (ratio CC50:EC50), VZV: different VZV strains
# [3] = tested on: Vaccinia virus Lederle strain; assay type: cell-based
compound,measurement,setting,value
O=c1[nH]cnc2c1ncn2CCOCCP(=O)(O)O [PEEHx],Ki,[1],300 nM
Nc1nc2c(ncn2CCOCCP(=O)(O)O)c(=O)[nH]1 [PEEG],Ki,[1],100 nM
"CC(CP(=O)(O)O)OCCn1cnc2c(N)nc(N)nc21 (centres unmarked) [Compound 14, 9-[2-(1-Phosphonopropan-2-yloxy)ethyl]diaminopurine]",Activity against herpes- and poxviruses (in words),[2],inactive
"Nc1ncnc2c1ncn2CCOC(CO)CP(=O)(O)O (centres unmarked) [Compound 9e, 9-[2-(3-Hydroxy-1-phosphonopropan-2-yloxy)ethyl]adenine]",Activity against herpes- and poxviruses (in words),[2],inactive; also recorded: annihilated the anti-DNA virus activity
"Nc1ncnc2c1ncn2CCOC(COCc1ccccc1)CP(=O)(O)O (centres unmarked) [Compound 9d, 9-[2-(3-Benzyloxy-1-phosphonopropan-2-yloxy)ethyl]adenine]",Activity against herpes- and poxviruses (in words),[2],inactive
"Cc1cn(CCOC(CO)CP(=O)(O)O)c(=O)[nH]c1=O (centres unmarked) [Compound 15e, 9-[2-(3-Hydroxy-1-phosphonopropan-2-yloxy)ethyl]thymine]",Activity against herpes- and poxviruses (in words),[2],inactive
"Nc1ccn(C[C@@H](CO)OCP(=O)(O)O)c(=O)n1.O.O [Cidofovir, reference compound]","Selectivity index (ratio CC50:EC50), HCMV",[2],195–282
same,"Selectivity index (ratio CC50:EC50), HSV",[2],322–363
same,"Selectivity index (ratio CC50:EC50), VZV",[2],880–2540
"CC(CP(=O)(O)O)OCCn1cnc2c(N)ncnc21 (centres unmarked) [Compound 9a, 9-[2-(1-Phosphonopropan-2-yloxy)ethyl]adenine]","Selectivity index (ratio CC50:EC50), HCMV",[2],14–15
same,"Selectivity index (ratio CC50:EC50), HSV",[2],6–10
same,"Selectivity index (ratio CC50:EC50), VZV",[2],120–190
same,EC50,[2]; read-out: EC50 values against different human herpesviruses (range),70 to 2300 nM
same,"Selectivity index (ratio CC50:EC50), vaccinia virus",[3],< 1
